Reference: US7402548B2, “Benzoxazole compounds, process for producing the same and herbicides” (Kyoyu Agri Co., Ltd., priority 2000, dated 2008)

Experiments:
livid amaranth [1] = test: Soil treatment test for upland field; type: in vivo, Amaranthus lividus; design: key: 0 = normal development, 5 = all killed; conditions: 500 g/ha, 3 weeks, glass house 25° C.
In short: (§1)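 Using a pre-emergence soil application at 500 g/ha, treated pots were held 3 weeks in a glass house averaging 25° C. Injury was graded on a 0–5 scale against non-treated pots; "-" marks entries not investigated.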

soybean = test: Soil treatment test for upland field; type: in vivo; design: key: 0 = normal development, 5 = all killed; conditions: 500 g/ha, 3 weeks, glass house 25° C.
In short: as §1

corn = test: Soil treatment test for upland field; type: in vivo; design: key: 0 = normal development, 5 = all killed; conditions: 500 g/ha, 3 weeks, glass house 25° C.
In short: as §1

wheat [2] = test: Soil treatment test for upland field; type: in vivo; design: key: 0 = normal development, 5 = all killed; conditions: 500 g/ha, 3 weeks, glass house 25° C.
In short: as §1

monochoria = test: Herbicidal test for paddy field; type: in vivo, Monochoria vaginalis; conditions: 500 g/ha, dropwise addition to paddy water at 1.5 leaf stage of barnyard grass; glass house 25° C., 3 weeks; rank 0-5 vs non-treated district
Description: (§2) Wagner pots, each having an area of 1/5000 are, were packed with Ube soil (alluvial soil) and planted with seeds or tubers of young rice plant, barnyard grass, bulrush, Cyperus serotinus Rottb., arrowhead and monochoria. Then, the pots were filled with water to a depth of 3 cm.
(§3) Each wettable powder of the desired Compounds (I) shown in Tables 1 to 21, 24, 25, 28 and 29 prepared in accordance with Example 2 was diluted with water containing a surfactant (0.05%) and subjected to dropwise addition treatment by using pipet so that an effective concentration of the compound (I) in each herbicide became 500 g/ha at 1.5 leaf stage of barnyard grass.
(§4) These plants were controlled in a glass house at an average temperature of 25° C. for 3 weeks, and then herbicidal effects thereof were investigated.
(§5) The herbicidal effects are evaluated according to the following 6 ranks as compared with non-treated district. (0: normal development, 1: Less damaged, 2: Slightly damaged, 3: Moderately damaged, 4: Severely damaged, 5: All killed). Incidentally, “-” in the column means not investigated.

common lambsquarters [3] = test: Soil treatment test for upland field; type: in vivo, Chenopodium album; design: key: 0 = normal development, 5 = all killed; conditions: 500 g/ha, 3 weeks, glass house 25° C.
In short: as §1

Large crabgrass = test: Soil treatment test for upland field; type: in vivo, Digitaria adscendens; design: key: 0 = normal development, 5 = all killed; conditions: 500 g/ha, 3 weeks, glass house 25° C.
In short: as §1

livid amaranth [4] = test: Foliar spread test for upland field; type: in vivo, Amaranthus lividus; design: key: 0 = normal development, 5 = all killed (6 ranks vs. untreated); conditions: foliar spray, 500 ppm, 3 weeks, glass house 25° C.
In short: (§6)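 Plants grown about 2 weeks at 25 °C in volcanic ash soil were sprayed with wettable powder diluted to 500 ppm in water with 0.5% surfactant. After 3 weeks at 25 °C, damage was scored 0 (normal) to 5 (all killed) against untreated plants.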

green foxtail = test: Soil treatment test for upland field; type: in vivo, Setaria viridis; design: key: 0 = normal development, 5 = all killed; conditions: 500 g/ha, 3 weeks, glass house 25° C.
In short: as §1

common lambsquarters [5] = test: Foliar spread test for upland field; type: in vivo, Chenopodium album; design: key: 0 = normal development, 5 = all killed (6 ranks vs. untreated); conditions: foliar spray, 500 ppm, 3 weeks, glass house 25° C.
In short: as §6

barnyard grass [6] = test: Herbicidal test for paddy field; type: in vivo, Eschinochloa crusgalli; conditions: 500 g/ha, dropwise addition to paddy water at 1.5 leaf stage of barnyard grass; glass house 25° C., 3 weeks; rank 0-5 vs non-treated district
Description: as §2, §3, §4, §5

annual bluegrass = test: Soil treatment test for upland field; type: in vivo, Poa annua; design: key: 0 = normal development, 5 = all killed; conditions: 500 g/ha, 3 weeks, glass house 25° C.
In short: as §1

wheat [7] = test: Foliar spread test for upland field; type: in vivo; design: key: 0 = normal development, 5 = all killed (6 ranks vs. untreated); conditions: foliar spray, 500 ppm, 3 weeks, glass house 25° C.
In short: as §6

barnyard grass [8] = test: Soil treatment test for upland field; type: in vivo, Eschinochloa crusgalli; design: key: 0 = normal development, 5 = all killed; conditions: 500 g/ha, 3 weeks, glass house 25° C.
In short: as §1

Row | Compound | Effects Livid amaranth (livid amaranth [1]) | Effects Soybean (soybean) | Effects Corn (corn) | Effects Wheat (wheat [2]) | Effects Monochoria (monochoria) | Effects Common lambsquarters (common lambsquarters [3]) | Effects Large crabgrass (Large crabgrass) | Effects Livid amaranth (livid amaranth [4]) | Effects Green foxtail (green foxtail) | Effects Common lambsquarters (common lambsquarters [5]) | Effects Barnyardgrass (barnyard grass [6]) | Effects Annual bluegrass (annual bluegrass) | Effects Wheat (wheat [7]) | Effects Barnyardgrass (barnyard grass [8])
1 | CCCC(Oc1cc(C)nc(C#N)n1)c1nc2cc(C#N)ccc2o1 (centres unmarked) [Compound 1-e-70] | 5 | 0 | 0 | 0 | 3 | 3 | 2 |  |  |  |  |  |  | 
2 | CCC(Oc1cc(C(F)(F)F)nn1C)c1nc2cc(C#N)c(Cl)cc2o1 (centres unmarked) [Compound 1-e-11] | 5 |  | 0 | 0 | 4 | 5 | 5 | 5 | 5 | 5 | 4 | 5 | 1 | 4
